This is an account of results in US9327059B2, “Steroid-containing sustained release intraocular implants and related methods” (Allergan, Inc., priority 2004, dated 2016).

Series [1] can be described thus: In vivo fluocinolone acetonide levels in rabbit eyes after intravitreal implant. The procedure:
The in vivo study was conducted on four rabbits. The fluocinolone-containing implants were surgically implanted into the posterior segment (i.e., the vitreous) of the right eye (OD) and left eye (OS) of each rabbit. The aqueous humor (15-20 μL) and the vitreous humor (150-200 μL) were withdrawn for the first two rabbits, while the sampling for the remaining two rabbits was determined by a sampling schedule wherein the sampling days were days 7, 14, 21, 40, and 60, 90, and 120.

For series [2] the following is noted: in vivo; cited from earlier work.
The nature of series [3]: Relative water solubility of the steroids. The series is classed as physicochemical.

Molecules are shown by their SMILES. Read-outs that look alike come from different tables or passages of the source.

Regarding `CC1(C)O[C@@H]2C[C@H]3[C@@H]4C[C@H](F)C5=CC(=O)C=C[C@]5(C)[C@@]4(F)[C@@H](O)C[C@]3(C)[C@]2(C(=O)CO)O1` [Fluocinolone acetonide, 1,4-pregnadien-6α, 9α-difluoro-11β, 16α,17,21-tetrol-3,20-dione 16,17-acetonide], the “fluocinolone acetonide level in anterior chamber / aqueous humor” value in series [1] (implant configuration #29, any time point) is listed as “not detected”. In series [1] (intravitreal implant configuration #29, day 40), the “Fluocinolone (ng/mL) in vitreous humor, single eye” value came to 40.80 ng/mL. The concentration at 7 day in series [1] (vitreous humor, intravitreal implant configuration #29, day 7) was 95.9 ng/mL. In series [1] (vitreous humor, intravitreal implant configuration #29, day 14), this compound had a concentration at 14 day of 50.9 ng/mL. The same compound had a concentration at 21 day in series [1] (vitreous humor, intravitreal implant configuration #29, day 21) of 45.7 ng/mL. The concentration at 40 day in series [1] (vitreous humor, intravitreal implant configuration #29, day 40, read-out: Fluocinolone (ng/mL) in vitreous humor, Average) is 42.4 ng/mL; in series [1] (vitreous humor, intravitreal implant configuration #29, day 40, read-out: Fluocinolone (ng/mL) in vitreous humor, single eye), 44 ng/mL. The compound also came in with a concentration at 60 day in series [1] (vitreous humor, intravitreal implant configuration #29, day 60) of 50.6 ng/mL. For the same compound, the concentration at 90 day in series [1] (vitreous humor, intravitreal implant configuration #29, day 90) stood at 36.1 ng/mL. In series [1] (vitreous humor, intravitreal implant configuration #29, day 120), this compound displayed a concentration at 120 day of 28.1 ng/mL.
In the case of `CC(C)OC(=O)CCC/C=C\C[C@@H]1[C@@H](CC[C@@H](O)CCc2ccccc2)[C@H](O)C[C@@H]1O` [latanoprost], in series [2], the “human eyes with increase in brown pigment in the iris” value is recorded as 5-15%.
As for `CC1(C)O[C@@H]2C[C@H]3[C@@H]4CCC5=CC(=O)C=C[C@]5(C)[C@@]4(F)[C@@H](O)C[C@]3(C)[C@]2(C(=O)CO)O1` [triamcinalone acetonide], in series [3], the “water solubility, times more soluble than beclomethasone dipropionate” value is “about 150 times”.
